The results in this text go back to patent publication US20230293535A1, “ERBB/BTK INHIBITORS” (Dizal (Jiangsu) Pharmaceutical Co., Ltd., priority 2018, published 2023).

In series [1] the target is T1, human EGFR exon 20 H773_V774insNPH (Homo sapiens, UniProt P00533, INS773NPH).
T1 construct: host or cells: Ba/F3
The series is described as follows: EGFR Exon20 NPH insertion cellular phosphorylation inhibition (MSD pEGFR Y1068/total EGFR).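 Note: IL3-independent Ba/F3 cells with constitutively phosphorylated EGFR, compound exposure at 37 °C under 5% CO2, electrochemiluminescent MSD measurement of the p-EGFR to total EGFR ratio.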 It is filed as cell-based. Conditions: Ba/F3 EGFR NPH ins cells, 4 h compound, p-EGFR(Y1068)/total EGFR.
Procedure: One day before the test, WT or mutant cells were seeded in 96 well plates at appropriate concentrations with corresponding growth media supplemented with 1% FBS, and incubated overnight. The next day, tested compounds at a series of concentrations were added into each individual well of the plates, and the plates were incubated for 4 h at 37° C. with 5% CO2.
The EGFR (Y1068) phosphorylation level (activity) of cells in each well were then measured with MSD kit named “MULTI-SPOT®96 4-Spot HB Prototype EGFR Triplex [sequence]: pEGFR(Tyr1068),pEGFR(Tyr1173), Total EGFR” according to the manufacturer’s instruction (MESO SCALE DISCOVERY, Cat# N45ZB-1). The assay is an electrochemiluminescent method for determining both phosphorylated and total EGFR of cells with an MSD SECTOR® Imager and the ratio of p-EGFR/total EGFR can be generated by the machine.

The target of series [2] is T2, human EGFR exon 20 V769_D770insASV (Homo sapiens, UniProt P00533, INS769ASV).
T2 construct: expressed in transfected cells; host or cells: Ba/F3 (DSMZ ACC-300), lentiviral transduction, puromycin selection, IL3 depletion
T2 sequence (P00533 with tags, fused parts or gaps INS769ASV): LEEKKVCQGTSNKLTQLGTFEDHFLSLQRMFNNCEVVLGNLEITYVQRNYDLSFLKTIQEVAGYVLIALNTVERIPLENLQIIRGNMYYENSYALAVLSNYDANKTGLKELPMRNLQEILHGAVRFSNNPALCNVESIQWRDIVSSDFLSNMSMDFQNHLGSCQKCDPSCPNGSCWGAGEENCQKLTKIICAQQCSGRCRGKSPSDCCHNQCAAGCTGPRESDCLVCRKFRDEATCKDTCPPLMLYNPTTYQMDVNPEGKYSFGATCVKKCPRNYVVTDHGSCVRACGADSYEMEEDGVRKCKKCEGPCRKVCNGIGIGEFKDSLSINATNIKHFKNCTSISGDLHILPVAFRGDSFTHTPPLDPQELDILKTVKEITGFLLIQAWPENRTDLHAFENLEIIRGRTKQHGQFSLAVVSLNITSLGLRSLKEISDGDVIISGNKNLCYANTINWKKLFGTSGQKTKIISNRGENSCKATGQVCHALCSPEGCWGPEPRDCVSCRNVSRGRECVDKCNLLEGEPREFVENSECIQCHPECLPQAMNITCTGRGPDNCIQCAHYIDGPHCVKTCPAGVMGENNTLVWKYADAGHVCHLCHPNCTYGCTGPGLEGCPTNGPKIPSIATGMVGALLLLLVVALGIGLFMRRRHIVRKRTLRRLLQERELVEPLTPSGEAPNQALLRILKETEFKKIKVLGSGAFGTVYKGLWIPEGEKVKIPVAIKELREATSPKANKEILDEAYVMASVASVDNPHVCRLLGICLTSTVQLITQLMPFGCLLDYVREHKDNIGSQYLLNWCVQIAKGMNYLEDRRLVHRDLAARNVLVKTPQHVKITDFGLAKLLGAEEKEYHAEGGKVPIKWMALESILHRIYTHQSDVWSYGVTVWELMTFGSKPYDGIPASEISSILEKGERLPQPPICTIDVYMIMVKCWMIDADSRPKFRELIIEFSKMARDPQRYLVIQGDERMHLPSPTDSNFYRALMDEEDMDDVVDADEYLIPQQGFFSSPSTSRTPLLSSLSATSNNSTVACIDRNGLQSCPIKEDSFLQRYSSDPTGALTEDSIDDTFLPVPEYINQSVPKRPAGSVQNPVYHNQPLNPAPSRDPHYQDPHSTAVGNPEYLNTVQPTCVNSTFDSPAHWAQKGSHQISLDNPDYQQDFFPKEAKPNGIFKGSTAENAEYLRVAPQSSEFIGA
In words: EGFR Exon20 ASV insertion cellular phosphorylation inhibition (MSD pEGFR Y1068/total EGFR).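 Note: electrochemiluminescent readout on an MSD SECTOR Imager, IL3-independent transduced cells in medium with 1% FBS, compound concentration series at 37 °C and 5% CO2.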 It is filed as cell-based. Conditions: Ba/F3 EGFR ASV ins cells, 4 h compound, p-EGFR(Y1068)/total EGFR.

A further series deals with T3, EGFR L858R&T790M (Homo sapiens, UniProt P00533, L858R/T790M).
T3 construct: host or cells: NCI-H1975
In words: EGFR L858R and T790M cellular phosphorylation inhibition in NCI-H1975 (MSD).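 Note: phosphorylated and total EGFR detected by electrochemiluminescence, cells exposed to compound in medium containing 1% FBS at 37 °C.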 The class given is cell-based. Conditions: NCI-H1975 cells, 4 h compound, p-EGFR(Y1068)/total EGFR; read-out: EGFR L858R and T790M mutation IC50.

The target of series [3] is T4, human Her2 exon 20 insertion mutation YVMA (Homo sapiens, UniProt P04626, INS775YVMA).
T4 construct: expressed in transfected cells; host or cells: NIH-3T3, lentiviral transduction, puromycin selection
T4 sequence (P04626 with tags, fused parts or gaps INS775YVMA): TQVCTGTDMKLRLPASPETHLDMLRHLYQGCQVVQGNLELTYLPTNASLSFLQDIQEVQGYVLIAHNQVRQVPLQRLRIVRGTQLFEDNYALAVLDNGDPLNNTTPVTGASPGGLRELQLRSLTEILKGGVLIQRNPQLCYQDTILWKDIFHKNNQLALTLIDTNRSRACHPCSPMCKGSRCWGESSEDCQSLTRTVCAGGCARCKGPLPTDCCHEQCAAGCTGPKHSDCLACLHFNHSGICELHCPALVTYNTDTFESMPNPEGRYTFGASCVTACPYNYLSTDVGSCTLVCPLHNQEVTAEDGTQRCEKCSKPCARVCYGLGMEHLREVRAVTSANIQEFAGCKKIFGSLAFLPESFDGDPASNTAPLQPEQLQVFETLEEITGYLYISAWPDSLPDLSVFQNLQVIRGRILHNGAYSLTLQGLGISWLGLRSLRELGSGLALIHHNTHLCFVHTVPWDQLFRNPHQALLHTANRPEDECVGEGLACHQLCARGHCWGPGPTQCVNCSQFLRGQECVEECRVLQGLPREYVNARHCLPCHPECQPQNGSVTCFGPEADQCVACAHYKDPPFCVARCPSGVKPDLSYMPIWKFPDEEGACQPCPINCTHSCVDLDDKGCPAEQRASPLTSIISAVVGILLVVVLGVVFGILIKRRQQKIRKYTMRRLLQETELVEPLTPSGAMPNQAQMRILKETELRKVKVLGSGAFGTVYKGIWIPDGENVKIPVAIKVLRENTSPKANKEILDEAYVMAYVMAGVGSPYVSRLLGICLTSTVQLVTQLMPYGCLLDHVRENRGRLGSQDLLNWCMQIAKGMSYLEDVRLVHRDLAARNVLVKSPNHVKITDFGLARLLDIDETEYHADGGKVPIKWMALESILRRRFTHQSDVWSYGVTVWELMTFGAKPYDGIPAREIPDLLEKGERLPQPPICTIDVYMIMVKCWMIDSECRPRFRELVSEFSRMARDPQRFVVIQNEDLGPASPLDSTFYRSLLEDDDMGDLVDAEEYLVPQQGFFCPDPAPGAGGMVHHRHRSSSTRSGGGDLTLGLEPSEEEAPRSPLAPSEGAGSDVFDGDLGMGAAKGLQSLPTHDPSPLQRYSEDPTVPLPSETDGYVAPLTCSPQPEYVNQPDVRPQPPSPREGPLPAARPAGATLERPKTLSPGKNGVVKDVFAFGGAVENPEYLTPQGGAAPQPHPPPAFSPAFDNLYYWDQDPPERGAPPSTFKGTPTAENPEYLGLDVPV
The series is described as follows: Her2 Exon 20 YVMA insertion cellular phosphorylation inhibition (MSD p-Her2 Y1248/total Her2).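 Note: lentivirally transduced NIH-3T3 cells in 1% FBS medium, electrochemiluminescent MSD read-out, graded compound concentrations at 37 °C.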 It is filed as cell-based. The following applies: Her2 YVMAins cells, 4 h compound.

Another series deals with T5, WT EGFR (Homo sapiens, UniProt P00533).
T5 construct: host or cells: A-431
T5 sequence (P00533 25-1210): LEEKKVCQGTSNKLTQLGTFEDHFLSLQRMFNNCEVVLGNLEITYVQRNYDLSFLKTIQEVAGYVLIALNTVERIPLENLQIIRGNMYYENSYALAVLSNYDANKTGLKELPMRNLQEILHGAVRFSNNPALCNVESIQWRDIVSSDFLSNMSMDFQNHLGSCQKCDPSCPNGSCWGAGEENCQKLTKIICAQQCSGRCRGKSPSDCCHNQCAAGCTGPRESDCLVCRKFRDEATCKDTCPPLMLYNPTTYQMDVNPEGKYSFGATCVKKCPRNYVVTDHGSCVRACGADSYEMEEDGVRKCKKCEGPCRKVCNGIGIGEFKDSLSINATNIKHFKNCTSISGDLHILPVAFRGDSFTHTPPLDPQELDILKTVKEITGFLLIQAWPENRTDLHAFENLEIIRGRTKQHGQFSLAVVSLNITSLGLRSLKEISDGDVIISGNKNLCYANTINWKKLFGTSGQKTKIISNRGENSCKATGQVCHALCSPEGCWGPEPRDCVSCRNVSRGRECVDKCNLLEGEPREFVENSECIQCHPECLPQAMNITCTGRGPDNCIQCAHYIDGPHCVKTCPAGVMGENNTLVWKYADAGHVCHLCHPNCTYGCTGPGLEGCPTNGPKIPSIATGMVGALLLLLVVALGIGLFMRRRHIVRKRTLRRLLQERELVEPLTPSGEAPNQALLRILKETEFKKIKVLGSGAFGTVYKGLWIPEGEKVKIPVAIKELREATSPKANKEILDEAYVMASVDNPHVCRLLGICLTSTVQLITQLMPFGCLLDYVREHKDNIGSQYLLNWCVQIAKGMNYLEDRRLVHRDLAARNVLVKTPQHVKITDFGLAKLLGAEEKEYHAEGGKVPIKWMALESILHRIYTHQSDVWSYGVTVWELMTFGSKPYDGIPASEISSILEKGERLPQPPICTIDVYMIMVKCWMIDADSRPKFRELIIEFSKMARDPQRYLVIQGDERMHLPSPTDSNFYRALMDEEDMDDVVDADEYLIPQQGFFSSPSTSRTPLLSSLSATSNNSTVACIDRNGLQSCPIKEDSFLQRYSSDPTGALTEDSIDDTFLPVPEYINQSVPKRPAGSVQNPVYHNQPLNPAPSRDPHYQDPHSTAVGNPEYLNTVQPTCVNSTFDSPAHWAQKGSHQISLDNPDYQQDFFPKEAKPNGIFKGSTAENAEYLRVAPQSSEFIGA
In words: WT EGFR cellular phosphorylation inhibition in A-431 (hEGF stimulated, MSD).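 Note: electrochemiluminescence read-out of EGFR Tyr1068 phosphorylation expressed as ratio to total EGFR, cells kept in medium with 1% FBS, compounds tested as a concentration series.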 The following applies: A431 cells, 4 h compound, then 100 ng/ml hEGF 10 min. The class given is cell-based.

Another series relates to Ba/F3 EGFR NPH ins cells. The series is described as follows: Cell proliferation, Ba/F3 EGFR NPH ins (CellTiter-Glo, 72 h).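 Note: IL3-independent cells carrying constitutively phosphorylated EGFR, compound dilution series, viable cells quantified by ATP luminescence, growth relative to DMSO wells after subtracting pre-dosing (day 0) baseline.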 The class given is cell-based. On the technique in general: ATP-based viability assays read luminescence as a measure of living cells.
Another series deals with Ba/F3 EGFR ASV ins cells. The series is described as follows: Cell proliferation, Ba/F3 EGFR ASV ins (CellTiter-Glo, 72 h).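 Note: IL3-independent Ba/F3 cells transduced with EGFR V769_D770insASV, cellular ATP luminescence after compound exposure, growth relative to DMSO control with the day-0 baseline reading subtracted.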 The class given is cell-based.
The subject of series [4] is NCI-H1975 EGFR L858R/T790M cells. In words: Cell proliferation, NCI-H1975 EGFR L858R/T790M (CellTiter-Glo, 72 h).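 Note: viable cells quantified by luciferase-based ATP luminescence, proliferation expressed relative to DMSO-treated wells (100%) after subtracting a parallel plate read at the time of dosing.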 It is filed as cell-based.
Procedure: (§1) WT or mutant cells were seeded in 384 well plates at appropriate concentrations with corresponding growth media supplemented with 10% FBS, for each experiment, identical plates were prepared in duplicates, and the plates were incubated overnight. On the next day, one of each duplicated plates was dosed with tested compounds at a series of concentrations, and another one of the duplicated plate was analysied for G0 value. The dosed plates were incubate for another 72 h at 37° C. with 5% CO2 and the number of viable cells in each well of the G0 plates or the dosed plates were measured by CellTiter-Glo® Luminescent Cell Viability Assay (Promega). This assay is a luminescent method for determining the number viable cells through measurement of cellular ATP concentration by detection of luciferase activity. Detection reagents (15 µl) was dispensed into per well, and the plates were incubate for 30 min at room temperature. Then, the luminescence in each well was measured using the Envision plate reader (PerkinElmer). The percentage of proliferation was calculated based on the formula: %Proliferation= 100 × (G3 value of sample well-Go value)/(G3 value of DMSO control-Go value).
Series [5] concerns Her2 exon 20 insertion YVMA transduced NIH-3T3 cell line. In words: Cell proliferation, Her2 YVMAins NIH-3T3 (CellTiter-Glo, 72 h).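 Note: viable cells quantified by ATP luminescence, growth over a day-zero baseline plate expressed as percent of DMSO control growth, compound dilution series in 10% FBS medium.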 The class given is cell-based.
Procedure: as §1
For the next series, the system named is WT EGFR cell line A-431. In words: Cell proliferation, WT EGFR A431 (CellTiter-Glo, 72 h).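 Note: proliferation from a luminescent ATP viability signal, expressed as 100 × (treated minus time-zero plate) over (DMSO control minus time-zero plate), cells grown with 10% FBS.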 The class given is cell-based.
For a further series, the system named is OCI-LY-10 cells. The series is described as follows: BTK (wt) cell proliferation, OCI-LY-10 (CellTiter-Glo, 72 h).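 Note: viable cells quantified via cellular ATP luminescence, proliferation given as percent of DMSO control after subtracting a duplicate plate read at time of dosing.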 It is filed as cell-based. The following applies: read-out: BTK WT OCI-LY-10 GI50.
A further series relates to TMD-8 cells. The series is described as follows: BTK (wt) cell proliferation, TMD-8 (CellTiter-Glo, 72 h).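 Note: viable cells quantified by ATP-based luminescence, proliferation expressed as percent of DMSO control after subtracting a time-zero baseline plate read at dosing.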 It is filed as cell-based. Conditions: read-out: BTK WT TMD-8 GI50.
In another series the test system is Ri-1 cells. The series is described as follows: BTK (wt) cell proliferation, Ri-1 (CellTiter-Glo, 72 h).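 Note: viable cells quantified as cellular ATP luminescence, proliferation normalized to a time-zero plate and the DMSO control, compounds tested across a dilution series.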 It is filed as cell-based. The following applies: read-out: BTK WT Ri-1 GI50.
Another series relates to DB cells. The series is described as follows: BTK (wt) cell proliferation, DB (CellTiter-Glo, 72 h).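 Note: DB cells in 384-well plates given a dilution series of compound, viable cells read by ATP luminescence, growth expressed versus DMSO control after subtracting a time-zero plate reading.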 The class given is cell-based. Conditions: read-out: Non-BCR activated DB GI50.
The subject of another series is rat hepatocytes. The series is described as follows: In vitro rat hepatocytes clearance assay. The following applies: male rat hepatocytes, 1 µM-range incubation up to 100 min.
The test system of a further series is human hepatocytes. The series is described as follows: In vitro human hepatocytes clearance assay. The following applies: mixed gender human hepatocytes, incubation up to 100 min.
The target in another series is T6, Phospho-BTK (Tyr223) (Homo sapiens, UniProt Q06187).
T6 construct: endogenous in cells; host or cells: Ramos
In words: p-BTK assay in Ramos cells (HTRF Phospho-BTK Tyr223). The class given is cell-based. The following applies: pervanadate stimulated, read-out: p-BTK (Romas) IC50.

Series [6] has as its target T7, BTK (Homo sapiens, UniProt Q06187). The series is described as follows: BTK target site occupancy ELISA (PBMC). It is filed as cell-based. The following applies: BTK receptor occupancy. In general terms: An ELISA detects its analyte on a solid surface through an enzyme-linked reagent.
Procedure: (§2) An enzyme-linked immunosorbent assay (ELISA) method for the detection of free uninhibited Btk in mouse and human lysates. Human or mouse whole blood were incubated with compound for 2 hour at 37° C. Whole blood were lysed in ice-cold lysis buffer containing 50 mM Tris-HCl, pH 7.5, 150 mM NaCl, 1 mM EDTA,1% Triton X-100. […] Samples were transferred to a streptavidin-coated 96-well ELISA plate and mixed while shaking for 1 hour at room temperature. The α-Btk antibody (1:500; clone number D3H5, Cell signaling Technology, Danvers, MA, USA) was then added to the well and incubated for 1 hour at room temperature. After wash, goat α-rabbit-FW (1:5000 dilution in PBS+ 0.05% Tween-20 + 1% BSA) was added to each well and incubated for 1 h at room temperature. The ELISA was developed with addition of tetramethyl benzidine (TMB) followed by Stop Solution and read at OD 450 nm.
Series [7] has as its target T7, BTK. The series is described as follows: BTK target site occupancy ELISA (Ramos). The class given is cell-based. Details: endogenous in cells; host or cells: Ramos. Conditions: BTK receptor occupancy, read-out: Occupancy (Romas) IC50.
Procedure: as §2
Series [8] in a line: in vitro. The following applies: male, rat, hepatocytes, rat hepatocytes Clint (µL/min/10^6cells).
Procedure: (§3) The protocol for rat/human hepatocytes metabolic stability assay is employed to determine the clearance of the compounds of the present disclosure in vitro.
(§4) Rat hepatocytes in male gender and human hepatocytes in mixed gender were obtained from commercial vendors (e.g., BioreclamationIVT) and stored at -150° C. prior to use. 10 mM stock solutions of tested compounds were prepared in DMSO. Thawing medium and supplement incubation medium (serum-free) were placed in a 37° C. water bath for at least 15 minutes prior to use. Stock solutions were diluted to 100 µM by combining 198 µL acetonitrile and 2 µL of 10 mM stock solution.
(§5) Vials of cryopreserved hepatocytes were removed from storage, ensured that vials remain at cryogenic temperatures. The vials were thawed in a 37° C. water bath with gently shaking. Vials were kept in water bath until all ice crystals had dissolved and were no longer visible. Vials were sprayed with 70% ethanol before being transferred to a biosafety cabinet. And then the contents were poured into the 50 mL thawing medium conical tube. Vials were centrifuged at 100 g for 10 minutes at room temperature.
(§6) Cell viability and density were counted using a Trypan Blue exclusion, and then cells were diluted with serum-free incubation medium to a working cell density of 1 × 10^6 viable cells/ml. […] The inactivated hepatocytes were used to prepare negative samples, which were used to exclude the misleading factor that resulted from instability of chemical itself.
(§7) Aliquots of 247.5 µL hepatocytes were dispensed into each well of a 96-well non-coated plate. The plate was placed in the incubator on an orbital shaker for approximately 10 minutes. Aliquots of 2.5 µL of the 100 µM test compounds were added into respective wells of the non-coated 96-well plate to start the reaction. This assay was performed in duplicate. The plate was incubated in the incubator on an orbital shaker for the designed time points. […] Samples were centrifuges for 20 minutes at 4000 g and aliquots of 100 µL of the supernatants were used for LC-MS/MS analysis for measurement of test compounds
(§8) In vitro hepatocyte clearance was estimated based on determination of elimination half-life (T½) of compounds disappearance from their initial concentrations. Peak area ratios of each compound (test or control) to IS was calculated. Ln (%Control) versus Incubation Time (min) curve was plotted, and the slope of a linear fitting line was calculated.
The nature of series [9]: in vitro. The following applies: both, human, hepatocytes, human hepatocytes Clint (µL/min/10^6cells).
Procedure: as §3, §4, §5, §6, §7, §8
Setting [10] is: Ba/F3 EGFR NPH ins, 72 h proliferation, read-out: EGFR Exon20 NPH insertion GI50.
[11] abbreviates: Ba/F3 EGFR ASV ins, 72 h proliferation, read-out: EGFR Exon20 ASV insertion GI50.
Where [12] appears, read: NCI-H1975, 72 h proliferation, read-out: EGFR L858R and T790M mutation GI50.
Where [13] appears, read: Her2 YVMAins cells, 72 h proliferation, read-out: Her2 Exon 20 YVMA insertion GI50.
[14] abbreviates: A431, 72 h proliferation, read-out: EGFR WT A431 GI50.
[15] abbreviates: OCI-LY-10 cells, 72 h, CellTiter-Glo.
Setting [16] is: TMD-8 cells, 72 h, CellTiter-Glo.
[17] abbreviates: Ri-1 cells, 72 h, CellTiter-Glo.

Read-outs that look alike come from different tables or passages of the source.

T1 sequence (P00533 with tags, fused parts or gaps INS773NPH): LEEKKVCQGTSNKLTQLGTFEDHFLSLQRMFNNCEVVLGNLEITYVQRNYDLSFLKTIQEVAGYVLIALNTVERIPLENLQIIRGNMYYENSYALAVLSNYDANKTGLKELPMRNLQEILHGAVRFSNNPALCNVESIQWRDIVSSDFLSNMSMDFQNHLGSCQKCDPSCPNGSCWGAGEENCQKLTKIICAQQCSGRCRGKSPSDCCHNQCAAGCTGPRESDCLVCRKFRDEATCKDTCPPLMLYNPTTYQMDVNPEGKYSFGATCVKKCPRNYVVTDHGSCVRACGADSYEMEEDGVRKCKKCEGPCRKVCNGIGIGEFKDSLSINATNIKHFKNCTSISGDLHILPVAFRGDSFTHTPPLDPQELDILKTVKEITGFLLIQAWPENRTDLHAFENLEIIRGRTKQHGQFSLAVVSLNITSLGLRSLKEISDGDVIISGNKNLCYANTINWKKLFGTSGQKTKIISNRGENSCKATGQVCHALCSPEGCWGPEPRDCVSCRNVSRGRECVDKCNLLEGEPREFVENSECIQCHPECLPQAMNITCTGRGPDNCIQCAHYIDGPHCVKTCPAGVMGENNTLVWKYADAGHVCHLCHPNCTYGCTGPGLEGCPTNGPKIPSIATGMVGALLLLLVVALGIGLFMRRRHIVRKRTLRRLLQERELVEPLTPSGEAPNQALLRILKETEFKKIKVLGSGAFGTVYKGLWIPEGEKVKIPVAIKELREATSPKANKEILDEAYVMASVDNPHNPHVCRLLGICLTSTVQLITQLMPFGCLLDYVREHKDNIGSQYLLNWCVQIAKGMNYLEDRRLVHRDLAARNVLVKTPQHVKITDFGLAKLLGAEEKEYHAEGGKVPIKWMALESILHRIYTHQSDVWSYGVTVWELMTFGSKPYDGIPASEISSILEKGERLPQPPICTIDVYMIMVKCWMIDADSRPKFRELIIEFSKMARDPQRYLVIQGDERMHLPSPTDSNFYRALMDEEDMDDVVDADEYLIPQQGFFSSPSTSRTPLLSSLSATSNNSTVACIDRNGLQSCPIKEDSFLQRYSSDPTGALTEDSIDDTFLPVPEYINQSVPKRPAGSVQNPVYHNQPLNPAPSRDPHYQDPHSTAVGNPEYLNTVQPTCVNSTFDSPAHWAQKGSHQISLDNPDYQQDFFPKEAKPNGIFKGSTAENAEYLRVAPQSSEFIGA
Procedure for Phospho-BTK (Tyr223): The assay plates were then incubated for 30 minutes at 37° C., 5% CO2. 300 uM Per vanadate (3X) was added to each well and the assay plates were again incubated for 60 minutes at 37° C., 5% CO2. Phospho-BTK (Tyr223) is detected using the HTRF® reagents (Cisbio) according to the manufacturer’s one-plate assay protocol.
Procedure for TMD-8 cells: OCI-LY-10 at 3,750 cells/well, TMD-8 and Ri-1 at 2,000 cells/well, and DB at 1,250 cells/well, respectively, were sorted into 384-well plates in RPMI1640 medium with 10% FBS. After overnight incubation, all cells were incubated with compound at a series of concentrations. Meanwhile, a duplicated plate of each cell line was prepared for measuring G0 value. The dosed plates were further incubated for 72 hours and the number of viable cells was measured by CellTiter-Glo® Luminescent Cell Viability Assay (Promega), a luminescent method for determining the number of viable cells through measurement of cellular ATP concentration using Envision plate reader (PerkinElmer). The percentage of proliferation was calculated as: % Proliferation = 100 × (G3 value of sample well - G0 value)/(G3 value of DMSO control - G0 value).
Procedure for human hepatocytes: as §3, §4, §5, §6, §7, §8
Procedure for rat hepatocytes: as §3, §4, §5, §6, §7, §8

`C=CC(=O)Nc1cc(Nc2ncnc(Nc3cc(Cl)c(F)cc3C(C)(O)CC)n2)c(OC)cc1N1CC[C@@H](N(C)C)C1` (single isomer, unassigned) [Compound 70, N-(5-(4-(5-chloro-4-fluoro-2-((R)-2-hydroxybutan-2-yl)phenylamino)-1,3,5-triazin-2-ylamino)-2-((R)-3-(dimethylamino)pyrrolidin-1-yl)-4-methoxyphenyl)acrylamide or N-(5-(4-(5-chloro-4-fluoro-2-((S)-2-hydroxybutan-2-yl)phenylamino)-1,3,5-triazin-2-ylamino)-2-((R)-3-(dimethylamino)pyrrolidin-1-yl)-4-methoxyphenyl)acrylamide]: the IC50 (as a rule, the concentration needed to halve the response being measured) in series [1] was determined as 0.0675 µM; in [2], 0.0223 µM; at EGFR L858R&T790M, 0.0015 µM; in [3] it was 0.0157 µM; against WT EGFR, 0.0712 µM. Moreover, the concentration for 50% growth inhibition (GI50) (in general, the concentration that inhibits growth by half) in the series with Ba/F3 EGFR NPH ins cells (setting [10]) worked out at 65.8 nM; in the series with Ba/F3 EGFR ASV ins cells (setting [11]), 65.4 nM; in series [4] (setting [12]) it was 9.1 nM; in [5] (setting [13]) it was 72 nM; in the series with WT EGFR cell line A-431 (setting [14]), 15.4 nM; with OCI-LY-10 cells (setting [15]), 0.0222 µM. The concentration for 50% growth inhibition (GI50) was 0.0102 µM with TMD-8 cells (setting [16]); 0.0889 µM in the series with Ri-1 cells (setting [17]); over 3 µM in the series with DB cells (DB cells, CellTiter-Glo). For the same compound, the “rat hepatocytes Clint (µL/min/10^6cells)” value with rat hepatocytes was 12.9 µL/min/10^6cells. For the same compound, the “human hepatocytes Clint (µL/min/10^6cells)” value in the series on human hepatocytes worked out at 3.69 µL/min/10^6cells.
For the compound `C=CC(=O)Nc1cc(Nc2nccc(Nc3cc(Cl)c(F)cc3C(C)(O)CC)n2)c(OC)cc1N1CC[C@@H](N(C)C)C1` (single isomer, unassigned) [Compound 77, N-(5-(4-(5-chloro-4-fluoro-2-((R)-2-hydroxybutan-2-yl)phenylamino)pyrimidin-2-ylamino)-2-((R)-3-(dimethylamino)pyrrolidin-1-yl)-4-methoxyphenyl) acrylamide or N-(5-(4-(5-chloro-4-fluoro-2-((S)-2-hydroxybutan-2-yl)phenylamino)pyrimidin-2-ylamino)-2-((R)-3-(dimethylamino)pyrrolidin-l-yl)-4-methoxyphenyl) acrylamide], the half-maximal inhibitory concentration (IC50) in series [1] amounted to 0.0448 µM; in [2], 0.0508 µM; at EGFR L858R&T790M, 0.0017 µM; in series [3], 0.0215 µM; at WT EGFR it was 0.303 µM; at Phospho-BTK (Tyr223) it was 0.0016 µM. Also, the results for the IC50 against BTK [6] and at BTK [7] were 0.0017 µM and 0.00049 µM, respectively. Also, the concentration for 50% growth inhibition (GI50) was 81.9 nM in the series on Ba/F3 EGFR NPH ins cells (setting [10]); 102 nM in the series with Ba/F3 EGFR ASV ins cells (setting [11]); 3.6 nM in series [4] (setting [12]); 109 nM in series [5] (setting [13]); 32.4 nM with WT EGFR cell line A-431 (setting [14]); 0.00123 µM with OCI-LY-10 cells (setting [15]). The 50% growth inhibitory concentration (GI50) is 0.00119 µM in the series with TMD-8 cells (setting [16]); 0.00155 µM in the series on Ri-1 cells (setting [17]); 1.75 µM in the series with DB cells (DB cells, CellTiter-Glo). For the same compound, in the series on rat hepatocytes, the “rat hepatocytes Clint (µL/min/10^6cells)” value worked out at 15.8 µL/min/10^6cells. Further, in the series on human hepatocytes, the “human hepatocytes Clint (µL/min/10^6cells)” value was found to be 7.87 µL/min/10^6cells.
On to `C=CC(=O)Nc1cc(Nc2ncnc(Nc3cc(Cl)c(F)cc3C(C)(O)CC)n2)c(OC)cc1N1CC[C@@H](N(C)C)C1` (stereo partly drawn) [Compound 59, N-(5-(4-(5-chloro-4-fluoro-2-(2-hydroxybutan-2-yl)phenylamino)-1,3,5-triazin-2-ylamino)-2-((R)-3-(dimethylamino)pyrrolidin-1-yl)-4-methoxyphenyl) acrylamide], for which the IC50 in [1] was 0.0164 µM; in [2], 0.0133 µM; on EGFR L858R&T790M, 0.0005 µM; in [3], 0.0035 µM; at WT EGFR, 0.0257 µM. In addition, the concentration for 50% growth inhibition (GI50) was 29.1 nM with Ba/F3 EGFR NPH ins cells (Ba/F3 EGFR, 72 h, read-out: EGFR Exon20 NPH insertion GI50 (nM)); 29.8 nM in the series on Ba/F3 EGFR ASV ins cells (Ba/F3 EGFR, 72 h, read-out: EGFR Exon20 ASV insertion GI50 (nM)); 2 nM in [4] (Homo sapiens, NCI-H1975, 72 h, read-out: EGFR L858R and T790M mutation GI50 (nM)); 62.2 nM in series [5] (Mus musculus, NIH3T3, 72 h, read-out: Her2 Exon 20 YVMA insertion GI50 (nM)); 10.7 nM in the series with WT EGFR cell line A-431 (Homo sapiens, A-431, 72 h, read-out: EGFR WT A431 GI50 (nM)); 0.0171 µM in the series on OCI-LY-10 cells (Homo sapiens, OCI-Ly10, 72 h). In addition, the GI50 in the series with TMD-8 cells (Homo sapiens, TMD8, 72 h) is 0.00478 µM; with Ri-1 cells (Ri-1, 72 h) it was 0.0269 µM; in the series on DB cells (Homo sapiens, DB), over 3 µM. The intrinsic clearance (hepatocyte CLint) (in general, the capacity of the preparation to metabolise the compound, expressed as a volume cleared per time) at 1 µM came to 14.1 µL/min/1e6 cells in “in vitro [8]” and 3.75 µL/min/1e6 cells in “in vitro [9]”.
